# Results as given in patent US9399626B2, “2-thiopyrimidinones” (Pfizer Inc., priority 2011, dated 2016).
# Counter-ions that a name gives are not always drawn.
# Target: T1, MPO (purified from human polynuclear leukocytes) (Homo sapiens, UniProt P05164)
# T1 construct: purified from human polynuclear leukocytes; purchased Calbiochem/EMD Biosciences; host or cells: human polynuclear leukocytes (natural source)
# Experiment: MPO Amplex Red Activity Assay
# Assay type: biochemical
# Conditions: Table 1, 2 μM H2O2, pH 7.4
# Summary of the method: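 Potency is given as kinact/KI: kobs values from 600 s progress curves, minus the uninhibited rate, are fit against inhibitor concentration. Reactions use 2 μM H2O2, 30 μM Amplex Red, pH 7.4 phosphate buffer with NaCl, DTPA and 2% DMSO, started with […] human MPO. Readout is resorufin fluorescence, catalase background subtracted.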
# T1 sequence (P05164 279-745 limits assumed): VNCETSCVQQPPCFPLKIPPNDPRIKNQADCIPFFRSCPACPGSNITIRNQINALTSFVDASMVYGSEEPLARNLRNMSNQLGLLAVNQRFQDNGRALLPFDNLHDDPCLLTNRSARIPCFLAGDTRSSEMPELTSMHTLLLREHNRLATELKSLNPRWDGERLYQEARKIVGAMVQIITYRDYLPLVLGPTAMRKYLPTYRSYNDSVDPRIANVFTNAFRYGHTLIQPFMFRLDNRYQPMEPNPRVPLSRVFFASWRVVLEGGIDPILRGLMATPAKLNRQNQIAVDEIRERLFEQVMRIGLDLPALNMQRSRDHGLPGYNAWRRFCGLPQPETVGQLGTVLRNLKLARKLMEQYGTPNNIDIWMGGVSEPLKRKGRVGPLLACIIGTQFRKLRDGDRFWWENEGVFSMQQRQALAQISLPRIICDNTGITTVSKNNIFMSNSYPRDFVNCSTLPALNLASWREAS
# T1 sequence (P05164 165-273 limits assumed): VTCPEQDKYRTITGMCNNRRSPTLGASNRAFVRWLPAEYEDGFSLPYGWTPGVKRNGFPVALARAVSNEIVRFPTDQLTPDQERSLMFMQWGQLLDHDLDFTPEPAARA
row,MPO kinact/Ki,Compound
1,20300 1/s per M,"COc1cccc(OC)c1-c1cc(=O)[nH]c(=S)n1CCO [Example 167, 6-(2,6-dimethoxyphenyl)-1-(2-hydroxyethyl)-2-thioxo-2,3-dihydropyrimidin-4(1H)-one]"
2,5240 1/s per M,"COCCn1c(-c2ccc(F)cc2OC)cc(=O)[nH]c1=S [Example 318, 6-(4-fluoro-2-methoxyphenyl)-1-(2-methoxyethyl)-2-thioxo-2,3-dihydropyrimidin-4(1H)-one]"
3,817 1/s per M,"COCCn1c(-c2cc(OC)c(OC)c(OC)c2)cc(=O)[nH]c1=S [Example 342, 1-(2-methoxyethyl)-2-thioxo-6-(3,4,5-trimethoxyphenyl)-2,3-dihydropyrimidin-4(1H)-one]"
4,24300 1/s per M,"COc1cc(OC)c(-c2cc(=O)[nH]c(=S)n2CCN)cc1C [Example 81, 1-(2-aminoethyl)-6-(2,4-dimethoxy-5-methylphenyl)-2-thioxo-2,3-dihydropyrimidin-4(1H)-one hydrochloride]"
5,1420 1/s per M,"COCCn1c(-c2ccc(OC)c(F)c2)cc(=O)[nH]c1=S [Example 315, 6-(3-fluoro-4-methoxyphenyl)-1-(2-methoxyethyl)-2-thioxo-2,3-dihydropyrimidin-4(1H)-one]"
6,2510 1/s per M,"COCCn1c(-c2cc(OC)c(Cl)cc2OC)cc(=O)[nH]c1=S [Example 233, 6-(4-chloro-2,5-dimethoxyphenyl)-1-(2-methoxyethyl)-2-thioxo-2,3-dihydropyrimidin-4(1H)-one]"
7,6930 1/s per M,"COc1cc(Cl)ccc1-c1cc(=O)[nH]c(=S)n1CCN [Example 62, 1-(2-aminoethyl)-6-(4-chloro-2-methoxyphenyl)-2-thioxo-2,3-dihydropyrimidin-4(1H)-one hydrochloride]"
8,8460 1/s per M,"COc1cc(OC)c(-c2cc(=O)[nH]c(=S)n2CCN)cc1OC [Example 198, 1-(2-aminoethyl)-2-thioxo-6-(2,4,5-trimethoxyphenyl)-2,3-dihydropyrimidin-4(1H)-one hydrochloride]"
9,2160 1/s per M,"COc1ccc(-c2cc(=O)[nH]c(=S)n2C[C@H](C)N)c(OC)c1 [Example 176, 1-[(2S)-2-aminopropyl]-6-(2,4-dimethoxyphenyl)-2-thioxo-2,3-dihydropyrimidin-4(1H)-one hydrochloride]"
10,2210 1/s per M,"COc1ccc(-c2cc(=O)[nH]c(=S)n2CCC(N)=O)c(OC)c1 [Example 189, 3-[6-(2,4-dimethoxyphenyl)-4-oxo-2-thioxo-3,4-dihydropyrimidin-1(2H)-yl]propanamide]"
11,246 1/s per M,"COc1ccc(-c2cc(=O)[nH]c(=S)n2CCOCC(=O)O)c(OC)c1 [Example 246, {2-[6-(2,4-dimethoxyphenyl)-4-oxo-2-thioxo-3,4-dihydropyrimidin-1(2H)-yl]ethoxy}acetic acid]"
12,745 1/s per M,"COc1ccc(-c2cc(=O)[nH]c(=S)n2CCCSC)c(OC)c1 [Example 227, 6-(2,4-dimethoxyphenyl)-1-[3-(methylthio)propyl]-2-thioxo-2,3-dihydropyrimidin-4(1H)-one]"
13,15300 1/s per M,"COc1ccc(Cl)cc1-c1cc(=O)[nH]c(=S)n1CCCN=C(N)N [Example 133, 2-{3-[6-(5-chloro-2-methoxyphenyl)-4-oxo-2-thioxo-3,4-dihydropyrimidin-1(2H)-yl]propyl} guanidine]"

# Continued, compound first:
row,Compound,MPO kinact/Ki
1,"NCCn1c(-c2cccc3[nH]ccc23)cc(=O)[nH]c1=S [Example 142, 1-(2-aminoethyl)-6-(1H-indol-4-yl)-2-thioxo-2,3-dihydropyrimidin-4(1H)-one trifluoroacetate]",4210 1/s per M
2,"COc1ccc(-c2cc(=O)[nH]c(=S)n2CC2CCCN2C(=N)N)c(OC)c1 (centres unmarked) [Example 258, 2-{[6-(2,4-dimethoxyphenyl)-4-oxo-2-thioxo-3,4-dihydropyrimidin-1(2H)-yl]methyl}pyrrolidine-1-carboximidamide trifluoroacetate]",1460 1/s per M
3,"O=c1cc(-c2cccc3ncsc23)n(CCO)c(=S)[nH]1 [Example 42, 6-(1,3-benzothiazol-7-yl)-1-(2-hydroxyethyl)-2-thioxo-2,3-dihydropyrimidin-4(1H)-one]",6070 1/s per M
4,"COc1nc2ccccc2cc1-c1cc(=O)[nH]c(=S)n1CCN [Example 97, 1-(2-aminoethyl)-6-(2-methoxyquinolin-3-yl)-2-thioxo-2,3-dihydropyrimidin-4(1H)-one trifluoroacetate]",6310 1/s per M
5,"COc1ccc(-c2cc(=O)[nH]c(=S)n2Cc2ccn(C(N)=S)n2)c(OC)c1 [Example 261, 3-{[6-(2,4-dimethoxyphenyl)-4-oxo-2-thioxo-3,4-dihydropyrimidin-1(2H)-yl]methyl}-1H-pyrazole-1-carbothioamide]",2280 1/s per M
6,"COc1ccc(-c2cc(=O)[nH]c(=S)n2CCOC(C)C)cc1 [Example 172, 1-(2-isopropoxyethyl)-6-(4-methoxyphenyl)-2-thioxo-2,3-dihydropyrimidin-4(1H)-one]",2950 1/s per M
7,"NCCCn1c(-c2cc3ccccc3s2)cc(=O)[nH]c1=S [Example 71, 1-(3-aminopropyl)-6-(1-benzothien-2-yl)-2-thioxo-2,3-dihydropyrimidin-4(1H)-one hydrochloride]",3570 1/s per M
8,"COCCn1c(-c2ccco2)cc(=O)[nH]c1=S [Example 277, 6-(2-furyl)-1-(2-methoxyethyl)-2-thioxo-2,3-dihydropyrimidin-4(1H)-one]",767 1/s per M
9,"COCCn1c(-c2ccccc2-n2nccn2)cc(=O)[nH]c1=S [Example 101, 1-(2-methoxyethyl)-2-thioxo-6-[2-(2H-1,2,3-triazol-2-yl)phenyl]-2,3-dihydropyrimidin-4(1H)-one]",4140 1/s per M
10,"COc1ccc(-c2cc(=O)[nH]c(=S)n2CC(N)=O)cc1OC [Example 83, 2-[6-(3,4-dimethoxyphenyl)-4-oxo-2-thioxo-3,4-dihydropyrimidin-1(2H)-yl]acetamide]",3510 1/s per M
11,"COc1ccc(F)cc1-c1cc(=O)[nH]c(=S)n1CCCN=C(N)N [Example 126, 2-{3-[6-(5-fluoro-2-methoxyphenyl)-4-oxo-2-thioxo-3,4-dihydropyrimidin-1(2H)-yl]propyl} guanidine]",18200 1/s per M

# Same assay, conditions: Table 1A, 2 μM H2O2, pH 7.4
row,MPO kinact/Ki,Compound
1,2660 1/s per M,"COc1ccc(Cl)cc1-c1cc(=O)[nH]c(=S)n1C[C@H](O)CO [Example 359, 6-(5-chloro-2-methoxyphenyl)-1-[(2S)-2,3-dihydroxypropyl]-2-thioxo-2,3-dihydropyrimidin-4(1H)-one]"
2,6250 1/s per M,"COc1ccc(-c2cc(=O)[nH]c(=S)n2CC(=O)N(C)CCN)c(OC)c1 [Example 390, N-(2-aminoethyl)-2-[6-(2,4-dimethoxyphenyl)-4-oxo-2-thioxo-3,4-dihydropyrimidin-1(2H)-yl]-N-methylacetamide]"

# The next lines start with the compound.
row,Compound,MPO kinact/Ki
1,"NCCn1c(-c2ccccc2OC(F)(F)F)cc(=O)[nH]c1=S [Example 382, 1-(2-aminoethyl)-2-thioxo-6-[2-(trifluoromethoxy)phenyl]-2,3-dihydropyrimidin-4(1H)-one]",2310 1/s per M
2,"O=c1cc(-c2ccccc2O)n(CCO)c(=S)[nH]1 [Example 366, 1-(2-hydroxyethyl)-6-(2-hydroxyphenyl)-2-thioxo-2,3-dihydropyrimidin-4(1H)-one]",13600 1/s per M
3,"COc1ccc(OC)c(-c2cc(=O)[nH]c(=S)n2CC(=O)NCCN)c1 [Example 370, N-(2-aminoethyl)-2-[6-(2,5-dimethoxyphenyl)-4-oxo-2-thioxo-3,4-dihydropyrimidin-1(2H)-yl]acetamide]",9060 1/s per M
4,"COc1ccc(Cl)cc1-c1cc(=O)[nH]c(=S)n1CC(=O)NCCN [Example 369, N-(2-aminoethyl)-2-[6-(5-chloro-2-methoxyphenyl)-4-oxo-2-thioxo-3,4-dihydropyrimidin-1(2H)-yl]acetamide]",8040 1/s per M
5,"NC(=O)Cn1c(-c2ccccc2OCCO)cc(=O)[nH]c1=S [Example 349, 2-(6-(2-(2-Hydroxyethoxy)phenyl)-4-oxo-2-thioxo-3,4-dihydropyrimidin-1(2H)-yl)acetamide]",3630 1/s per M
6,"NC(=O)Cn1c(-c2ccc(F)cc2OCCO)cc(=O)[nH]c1=S [Example 414, 2-{6-[4-fluoro-2-(2-hydroxyethoxy)phenyl]-4-oxo-2-thioxo-3,4-dihydropyrimidin-1(2H)-yl}acetamide]",1680 1/s per M
7,"NCCn1c(-c2cccc3ncsc23)cc(=O)[nH]c1=S [Example 362, 1-(2-aminoethyl)-6-(1,3-benzothiazol-7-yl)-2-thioxo-2,3-dihydropyrimidin-4(1H)-one]",2690 1/s per M
8,"COc1ccc(OCCO)c(-c2cc(=O)[nH]c(=S)n2CCO)c1 [Example 379, 6-[2-(2-hydroxyethoxy)-5-methoxyphenyl]-1-(2-hydroxyethyl)-2-thioxo-2,3-dihydropyrimidin-4(1H)-one]",7370 1/s per M
9,"COc1ccc(-c2cc(=O)[nH]c(=S)n2CC(=O)NCCNC(=O)[C@H](C)N)c(OC)c1 [Example 399, N-[2-({[6-(2,4-dimethoxyphenyl)-4-oxo-2-thioxo-3,4-dihydropyrimidin-1(2H)-yl]acetyl}amino)ethyl]-L-alaninamide]",4860 1/s per M
